Measurements: patent US9850283B2, “Macrocyclic inhibitors of the PD-1/PD-L1 and CD80(B7-1)/PD-L1 protein/protein interactions” (BRISTOL-MYERS SQUIBB COMPANY, priority 2013, dated 2017)
Where two headings read alike, the source gives them in different places. Positions of bridges follow the written chain, without caps; N, C: chain ends. Non-standard residues stand in square brackets, D forms with d. Residues, ends and D or L forms follow the SMILES beside them. *: point of attachment. Phe(3,4,5-F3) = N[C@@H](Cc1cc(F)c(F)c(F)c1)C(=O)O; Phe(4-CH2NH2) = NCc1ccc(C[C@H](N)C(=O)O)cc1; Phe(3-OMe) = COc1cccc(C[C@H](N)C(=O)O)c1; Phe(3-F) = N[C@@H](Cc1cccc(F)c1)C(=O)O; Pro(4,4-F2) = O=C(O)[C@@H]1CC(F)(F)CN1; Pro(4R-NH2) = N[C@H]1CN[C@H](C(=O)O)C1; d(cisHyp) = O=C(O)[C@H]1C[C@@H](O)CN1; Bta = N[C@@H](Cc1csc2ccccc12)C(=O)O; cisHyp = O=C(O)[C@@H]1C[C@H](O)CN1; Hyp = O=C(O)[C@@H]1C[C@@H](O)CN1; NMeF = CN[C@@H](Cc1ccccc1)C(=O)O; NMeL = CN[C@@H](CC(C)C)C(=O)O; NMeNle = CCCC[C@H](NC)C(=O)O; dPip = O=C(O)[C@H]1CCCCN1; NMeA = CN[C@@H](C)C(=O)O; Orn = NCCC[C@H](N)C(=O)O; Dab = NCC[C@H](N)C(=O)O; Dap = NC[C@H](N)C(=O)O; Bn = c1ccc(C*)cc1; Sar = CNCC(=O)O

How the values were obtained:
Human PD-L1/PD-1 = molecular target: T1, Human PD-L1/PD-1 (Homo sapiens, UniProt Q9NZQ7); assay: HTRF PD-1-Ig/PD-L1-His binding assay (human PD-L1); settings: cluster symbol; read-out: HTRF IC50 cluster
T1 construct: made in house; host or cells: HEK293T
In short: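 Steps: truncated PD-1-Ig and PD-L1-His fusions are incubated in dPBS containing 0.1% (w/v) BSA and 0.05% (v/v) Tween-20. Detection antibodies are then added (Eu cryptate anti-Ig at 1 nM final, APC anti-His at 20 nM final), and time-resolved FRET is measured.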

[1] = molecular target: T2, LK35.2-hPD-L1 cells / PE-labeled PD-1-Ig (Homo sapiens, UniProt Q9NZQ7); assay: LK35.2-hPD-L1 cell binding high-content screening assay; assay type: cell-based; settings: cluster symbol, read-out: CBA IC50 cluster
T2 construct: expressed in transfected cells; host or cells: LK35.2 mouse B cell line
Description: LK35.2-hPD-L1 Cell Binding High-Content Screening Assay. Phycoerythrin (PE) was covalently linked to the Ig epitope tag of human PD-1-Ig and fluorescently-labeled PD-1-Ig was used for binding studies with a mouse B cell line (LK35.2) stably over-expressing human PD-L1 (LK35.2-hPD-L1). Briefly, 3×10^3 LK35.2-hPD-L1 cells were seeded into 384 well plates in 20 ul of RPMI supplemented with 10% fetal calf serum and cultured overnight. 125 nl of compound was added to cells, followed by 5 ul of PE-labeled PD-1-Ig (1 nM final), diluted in RPMI supplemented with 10% fetal calf serum, followed by incubation at 37° C. for 1 h. […] Cells were washed 3× in 100 ul of dPBS followed by final addition of 15 ul of dPBS. Data was collected and processed using a Cell Insight NXT High Content Imager and associated software.

[2] = cell binding assay, cell line not given
[3] = cell line of CBA not given (LK35.2-hPD-L1 or 293T-hPD-L1)

T2 sequence (Q9NZQ7 19-290): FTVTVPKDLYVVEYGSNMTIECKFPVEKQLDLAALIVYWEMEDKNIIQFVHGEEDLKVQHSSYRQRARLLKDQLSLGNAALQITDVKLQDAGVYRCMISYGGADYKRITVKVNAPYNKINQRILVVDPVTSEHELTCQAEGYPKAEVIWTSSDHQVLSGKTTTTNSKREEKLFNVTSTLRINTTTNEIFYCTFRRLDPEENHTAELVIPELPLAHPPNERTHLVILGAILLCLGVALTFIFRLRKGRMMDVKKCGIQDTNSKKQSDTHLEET
T1 sequence (Q9NZQ7 with tags, fused parts or gaps): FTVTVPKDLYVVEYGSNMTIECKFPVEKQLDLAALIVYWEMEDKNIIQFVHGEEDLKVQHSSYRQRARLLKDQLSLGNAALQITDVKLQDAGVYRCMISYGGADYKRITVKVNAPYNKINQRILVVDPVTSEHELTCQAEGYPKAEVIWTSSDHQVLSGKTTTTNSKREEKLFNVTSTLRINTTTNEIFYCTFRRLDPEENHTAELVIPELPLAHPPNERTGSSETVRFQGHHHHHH

SMILES	IC50 (Human PD-L1/PD-1) [nM]	IC50 [1, 2] [nM]	IC50 [1, 3] [nM]
CCCC[C@H]1C(=O)N(C)[C@@H](CCCC)C(=O)N[C@@H](CCCN)C(=O)N[C@H](C(=O)NCC(N)=O)CSCC(=O)N[C@@H](Cc2ccc(O)cc2)C(=O)N(C)[C@@H](C)C(=O)N[C@@H](CC(N)=O)C(=O)N2CCC[C@H]2C(=O)N[C@@H](CN)C(=O)N[C@@H](CC(C)C)C(=O)N2C[C@H](OCc3ccccc3)C[C@H]2C(=O)N[C@@H](Cc2c[nH]c3ccccc23)C(=O)N[C@@H](CO)C(=O)N[C@@H](Cc2c[nH]c3ccccc23)C(=O)N1C [Example 14003] ({CH2CO}-Y[NMeA]NP[Dap]L[Hyp](Bn)WSW[NMeNle][NMeNle][Orn]CG-NH2; thioether N-14)	0.385 to 6.74	0.158 to 4.71	–
CCCC[C@H]1C(=O)N(C)[C@@H](CCCC)C(=O)N[C@@H](CCCNC(=N)N)C(=O)N[C@H](C(=O)NCC(N)=O)CSCC(=O)N[C@@H](Cc2ccc(O)cc2)C(=O)N(C)[C@@H](C)C(=O)N[C@@H](CC(N)=O)C(=O)N2CCC[C@H]2C(=O)N[C@@H](Cc2cnc[nH]2)C(=O)N[C@@H](CC(C)C)C(=O)N2CC(F)(F)C[C@H]2C(=O)N[C@@H](Cc2c[nH]c3ccccc23)C(=O)N[C@@H](CO)C(=O)N[C@@H](Cc2csc3ccccc23)C(=O)N1C [Example 1036] ({CH2CO}-Y[NMeA]NPHL[Pro(4,4-F2)]WS[Bta][NMeNle][NMeNle]RCG-NH2; thioether N-14)	6.76 to 30.3	–	0.158 to 4.71
CCCC[C@H]1C(=O)N(C)CC(=O)N[C@@H](CC(=O)O)C(=O)N[C@@H](C(C)C)C(=O)N(C)[C@@H](Cc2ccccc2)C(=O)N[C@@H](Cc2ccc(O)cc2)C(=O)N(C)CC(=O)N[C@@H](Cc2c[nH]c3ccccc23)C(=O)N[C@@H](Cc2ccc(O)cc2)C(=O)N2CCC[C@H]2C(=O)N[C@H](C(=O)NCC(N)=O)CSCC(=O)N[C@@H](Cc2ccccc2)C(=O)N(C)[C@@H](Cc2ccccc2)C(=O)N1C [Example 3561] (HELM PEPTIDE1{[O=C(C[*:3])[*:2]].F.[meF].[CCCC[C@@H](C(=O)[*:2])N(C)[*:1]].[Sar].D.V.[meF].Y.[Sar].W.Y.P.C.G.[am]}$PEPTIDE1,PEPTIDE1,1:R3-14:R3$$$V2.0)	> 30.5	> 74.3	–
CCCC[C@H]1C(=O)N(C)[C@@H](CC(C)C)C(=O)N[C@@H](CN)C(=O)N[C@H](C(=O)NCC(N)=O)CSCC(=O)N[C@@H](Cc2ccc(O)cc2)C(=O)N(C)[C@@H](C)C(=O)N[C@@H](CC(N)=O)C(=O)N2CCC[C@H]2C(=O)N[C@@H](Cc2c[nH]cn2)C(=O)N[C@@H](CCC(=O)O)C(=O)N2C[C@H](O)C[C@H]2C(=O)N[C@@H](Cc2c[nH]c3ccccc23)C(=O)N[C@@H](CCN)C(=O)N[C@@H](Cc2c[nH]c3ccccc23)C(=O)N1C [Example 5141] ({CH2CO}-Y[NMeA]NPHE[Hyp]W[Dab]W[NMeNle][NMeL][Dap]CG-NH2; thioether N-14)	0.385 to 6.74	4.78 to 72.9	–
CCCC[C@H]1C(=O)N2C[C@H](O)C[C@@H]2C(=O)N2C[C@H](N)C[C@H]2C(=O)N[C@@H](C(C)C)C(=O)N(C)[C@@H](Cc2ccccc2)C(=O)N[C@@H](Cc2ccc(O)cc2)C(=O)N2CCCC[C@@H]2C(=O)N[C@@H](Cc2c[nH]c3ccccc23)C(=O)N[C@@H](Cc2ccc(O)cc2)C(=O)N[C@@H](CC(C)C)C(=O)N[C@H](C(=O)NCC(N)=O)CSCC(=O)N[C@@H](Cc2cc(F)c(F)c(F)c2)C(=O)N(C)[C@@H](Cc2ccccc2)C(=O)N1C [Example 3196] ({CH2CO}-[Phe(3,4,5-F3)][NMeF][NMeNle][d(cisHyp)][Pro(4R-NH2)]V[NMeF]Y[dPip]WYLCG-NH2; thioether N-13)	0.385 to 6.74	–	0.158 to 4.71
CCCC[C@H]1C(=O)N(C)CC(=O)N[C@@H](CC(=O)O)C(=O)N[C@@H](C(C)C)C(=O)N(C)[C@@H](Cc2ccccc2)C(=O)N[C@@H](CC(C)C)C(=O)N(C)CC(=O)N[C@@H](Cc2c[nH]c3ccccc23)C(=O)N[C@@H](Cc2ccc(O)cc2)C(=O)N[C@@H](CC(C)C)C(=O)N[C@H](C(=O)NCC(N)=O)CSCC(=O)N[C@@H](Cc2ccccc2)C(=O)N(C)[C@@H](Cc2ccccc2)C(=O)N1C [Example 3505] (HELM PEPTIDE1{[O=C(C[*:3])[*:2]].F.[meF].[CCCC[C@@H](C(=O)[*:2])N(C)[*:1]].[Sar].D.V.[meF].L.[Sar].W.Y.L.C.G.[am]}$PEPTIDE1,PEPTIDE1,1:R3-14:R3$$$V2.0)	6.76 to 30.3	4.78 to 72.9	–
CCCC[C@H]1C(=O)N(C)[C@@H](CCCC)C(=O)N[C@@H](CCCNC(=N)N)C(=O)N[C@H](C(=O)NCC(N)=O)CSCC(=O)N[C@@H](Cc2ccc(CN)cc2)C(=O)N(C)[C@@H](C)C(=O)N[C@@H](CC(N)=O)C(=O)N2CCC[C@H]2C(=O)N[C@@H](CN)C(=O)N[C@@H](CC(C)C)C(=O)N2C[C@H](O)C[C@H]2C(=O)N[C@@H](Cc2c[nH]c3ccccc23)C(=O)N[C@@H](CO)C(=O)N[C@@H](Cc2c[nH]c3ccccc23)C(=O)N1C [Example 7042] ({CH2CO}-[Phe(4-CH2NH2)][NMeA]NP[Dap]L[Hyp]WSW[NMeNle][NMeNle]RCG-NH2; thioether N-14)	6.76 to 30.3	4.78 to 72.9	–
CCCC[C@H]1C(=O)N(C)[C@@H](CCCC)C(=O)N[C@@H](CCCNC(=N)N)C(=O)N[C@H](C(=O)NCC(N)=O)CSCC(=O)N[C@@H](Cc2ccccc2)C(=O)N(C)[C@@H](C)C(=O)N[C@@H](CC(C)C)C(=O)N2CCC[C@H]2C(=O)N[C@@H](Cc2cnc[nH]2)C(=O)N[C@@H](CC(C)C)C(=O)N(C)CC(=O)N[C@@H](Cc2c[nH]c3ccccc23)C(=O)N[C@@H](CO)C(=O)N[C@@H](Cc2c[nH]c3ccccc23)C(=O)N1C [Example 1082] ({CH2CO}-F[NMeA]LPHL[Sar]WSW[NMeNle][NMeNle]RCG-NH2; thioether N-14)	> 30.5	–	> 74.3
C=CCCCCC[C@H]1C(=O)N(C)[C@@H](CCCCCC=C)C(=O)N[C@@H](CCCNC(=N)N)C(=O)N[C@H](C(=O)NCC(N)=O)CSCC(=O)N[C@@H](Cc2ccccc2)C(=O)N(C)[C@@H](C)C(=O)N[C@@H](CC(N)=O)C(=O)N2CCC[C@H]2C(=O)N[C@@H](Cc2cnc[nH]2)C(=O)N[C@@H](CC(C)C)C(=O)N(C)CC(=O)N[C@@H](Cc2c[nH]c3ccccc23)C(=O)N[C@@H](CO)C(=O)N[C@@H](Cc2c[nH]c3ccccc23)C(=O)N1C [Example 1047]	> 30.5	–	> 74.3
CCCC[C@H]1C(=O)N(C)[C@@H](CCCC)C(=O)N[C@@H](C)C(=O)N[C@H](C(=O)NCC(N)=O)CSCC(=O)N[C@@H](Cc2ccc(O)cc2)C(=O)N2CCC[C@H]2C(=O)N[C@@H](CC(=O)O)C(=O)N2CCC[C@H]2C(=O)N[C@@H](CN)C(=O)N[C@@H](CC(C)C)C(=O)N2C[C@@H](O)C[C@H]2C(=O)N[C@@H](Cc2c[nH]c3ccccc23)C(=O)N[C@@H](CCN)C(=O)N[C@@H](Cc2c[nH]c3ccccc23)C(=O)N1C [Example 1150] ({CH2CO}-YPDP[Dap]L[cisHyp]W[Dab]W[NMeNle][NMeNle]ACG-NH2; thioether N-14)	0.385 to 6.74	–	0.158 to 4.71
CCCC[C@H]1C(=O)N(C)[C@@H](CCCC)C(=O)N[C@@H](CN)C(=O)N[C@H](C(=O)NCC(N)=O)CSCC(=O)N[C@@H](Cc2ccc(O)cc2)C(=O)N(C)[C@@H](C)C(=O)N[C@@H](CC(=O)O)C(=O)N2CCC[C@H]2C(=O)N[C@@H](Cc2c[nH]cn2)C(=O)N[C@@H](CCC(N)=O)C(=O)N2C[C@H](O)C[C@H]2C(=O)N[C@@H](Cc2c[nH]c3ccccc23)C(=O)N[C@@H](CO)C(=O)N[C@@H](Cc2c[nH]c3ccccc23)C(=O)N1C [Example 5101] ({CH2CO}-Y[NMeA]DPHQ[Hyp]WSW[NMeNle][NMeNle][Dap]CG-NH2; thioether N-14)	0.385 to 6.74	0.158 to 4.71	–
CCCC[C@H]1C(=O)N(C)CC(=O)N[C@@H](CC(=O)O)C(=O)N[C@@H](C(C)C)C(=O)N(C)[C@@H](Cc2ccccc2)C(=O)N[C@@H](Cc2ccc(O)cc2)C(=O)N(C)CC(=O)N[C@@H](Cc2csc3ccccc23)C(=O)N[C@@H](Cc2ccc(O)cc2)C(=O)N[C@@H](CC(C)C)C(=O)N[C@H](C(=O)NCC(N)=O)CSCC(=O)N[C@@H](Cc2cccc(F)c2)C(=O)N(C)[C@@H](Cc2ccccc2)C(=O)N1C [Example 3117] ({CH2CO}-[Phe(3-F)][NMeF][NMeNle][Sar]DV[NMeF]Y[Sar][Bta]YLCG-NH2; thioether N-13)	6.76 to 30.3	–	4.78 to 72.9
CCCC[C@H]1C(=O)N(C)CC(=O)N[C@@H](CC(=O)O)C(=O)N[C@@H](C(C)C)C(=O)N(C)[C@@H](Cc2ccccc2)C(=O)N[C@@H](Cc2ccc(O)cc2)C(=O)N(C)CC(=O)N[C@@H](Cc2cccc(OC)c2)C(=O)N[C@@H](Cc2ccc(O)cc2)C(=O)N[C@@H](CC(C)C)C(=O)N[C@H](C(=O)NCC(N)=O)CSCC(=O)N[C@@H](Cc2ccccc2)C(=O)N(C)[C@@H](Cc2ccccc2)C(=O)N1C [Example 3548] ({CH2CO}-F[NMeF][NMeNle][Sar]DV[NMeF]Y[Sar][Phe(3-OMe)]YLCG-NH2; thioether N-13)	> 30.5	> 74.3	–
